This is an account of results in ChEMBL document CHEMBL1124355, “Synthesis and biological activity of some partially modified retro-inverso analogues of cholecystokinin” (J Med Chem, 1989).

By IC50 is commonly meant the concentration that inhibits the measured activity by half. The low end stands for higher potency, the high end for lower potency. For orientation: EC50 means the concentration giving half of the maximal effect.

In one assay the target is T1, Cholecystokinin receptor (Rattus norvegicus, UniProt P30551+P30553).
T1 sequence (P30551 whole entry): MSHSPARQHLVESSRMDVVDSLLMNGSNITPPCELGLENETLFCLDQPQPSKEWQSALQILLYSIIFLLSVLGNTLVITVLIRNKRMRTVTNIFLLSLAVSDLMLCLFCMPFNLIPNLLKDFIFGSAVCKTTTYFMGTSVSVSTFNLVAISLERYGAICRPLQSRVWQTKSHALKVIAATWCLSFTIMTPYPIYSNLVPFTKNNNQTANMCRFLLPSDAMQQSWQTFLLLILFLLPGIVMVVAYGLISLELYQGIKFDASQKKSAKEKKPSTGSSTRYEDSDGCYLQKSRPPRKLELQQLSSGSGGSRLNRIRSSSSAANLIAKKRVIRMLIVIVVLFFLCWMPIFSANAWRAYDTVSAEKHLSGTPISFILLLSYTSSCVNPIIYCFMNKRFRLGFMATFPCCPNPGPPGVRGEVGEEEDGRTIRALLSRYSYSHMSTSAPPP
T1 sequence (P30553 whole entry): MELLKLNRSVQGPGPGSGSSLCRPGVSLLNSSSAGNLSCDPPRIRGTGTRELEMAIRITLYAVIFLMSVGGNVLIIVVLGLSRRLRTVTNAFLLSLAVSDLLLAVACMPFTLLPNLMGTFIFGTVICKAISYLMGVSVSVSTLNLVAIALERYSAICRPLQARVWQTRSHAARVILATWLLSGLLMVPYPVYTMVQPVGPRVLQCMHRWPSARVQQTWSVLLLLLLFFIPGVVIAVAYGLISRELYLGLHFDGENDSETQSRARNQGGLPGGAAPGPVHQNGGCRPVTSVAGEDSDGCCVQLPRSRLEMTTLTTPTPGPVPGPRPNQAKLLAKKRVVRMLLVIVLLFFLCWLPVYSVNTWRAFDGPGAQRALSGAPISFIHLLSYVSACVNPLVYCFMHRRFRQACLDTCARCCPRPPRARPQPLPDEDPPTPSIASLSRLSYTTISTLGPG
The experiment in a line: Ability of compound to Inhibit the binding of [125I]BH-CCK-8 to Cholecystokinin receptor in isolated rat pancreatic acini. It is filed as protein assay.

A short description of assay [1]: Ability of compound to Inhibit the binding of [125I]BH-CCK-8 to Cholecystokinin receptor in isolated guinea pig brain membranes.
Another assay is filed under the species Rattus norvegicus. The experiment in a line: Ability of compound to stimulate in vitro amylase release from rat pancreatic acini. It is filed as functional.

Non-standard residues stand in square brackets, D forms with d. Residues, ends and D or L forms follow the SMILES beside them. *: point of attachment. sY = N[C@@H](Cc1ccc(OS(=O)(=O)O)cc1)C(=O)O; Nle = CCCC[C@H](N)C(=O)O; Boc = CC(C)(C)OC(=O)*

`CCCC[C@H](NC(=O)[C@H](Cc1ccc(OS(=O)(=O)O)cc1)NC(=O)OC(C)(C)C)C(=O)NCNC(=O)[C@H](Cc1c[nH]c2ccccc12)NC(=O)[C@H](CCCC)NC(=O)[C@H](CC(=O)O)NC(=O)[C@@H](Cc1ccccc1)C(N)=O`: the IC50 is 20 nM on Cholecystokinin receptor and 1000 nM in assay [1]. The molecule further came in with an EC50 in the assay listed under Rattus norvegicus of 30 nM.
The corresponding values for `CCCC[C@H](NC(=O)[C@H](Cc1ccc(OS(=O)(=O)O)cc1)NC(=O)C(CC(=O)O)NC(=O)OC(C)(C)C)C(=O)NCC(=O)N[C@H](Cc1c[nH]c2ccccc12)C(=O)N[C@@H](CCCC)C(=O)N[C@H](CC(=O)O)NC(=O)CCc1ccccc1` (some centres not stated) are 100 nM, 40 nM and 130 nM.
As for `CCCC[C@H](NC(=O)[C@H](Cc1ccc(OS(=O)(=O)O)cc1)NC(=O)OC(C)(C)C)C(=O)NCC(=O)N[C@H](Cc1c[nH]c2ccccc12)C(=O)N[C@@H](CCCC)C(=O)N[C@@H](CC(=O)O)C(=O)N[C@@H](Cc1ccccc1)NC=O`, the IC50 on Cholecystokinin receptor worked out at 4000 nM; in assay [1], 100 nM. In addition, in the assay listed under Rattus norvegicus, the EC50 is 1700 nM.
For `CCCC[C@H](NC(=O)[C@H](Cc1ccc(OS(=O)(=O)O)cc1)NC(=O)C(CC(=O)O)NC(=O)OC(C)(C)C)C(=O)NCC(=O)N[C@H](Cc1c[nH]c2ccccc12)C(=O)N[C@@H](CCCC)C(=O)N[C@H](CC(=O)O)NC(=O)[C@@H](Cc1ccccc1)C(N)=O` (some centres not stated) the same measures were 100 nM, 10 nM and 0.7 nM.
The corresponding values for `CCCC[C@H](NC(=O)[C@H](Cc1ccc(OS(=O)(=O)O)cc1)NC(=O)OC(C)(C)C)C(=O)NCNC(=O)[C@H](Cc1c[nH]c2ccccc12)NC(=O)[C@H](CCCC)NC(=O)[C@H](CC(=O)O)NC(=O)CCc1ccccc1` are 40 nM, 100 nM and 17 nM.
For `CCCC[C@H](NC(=O)[C@H](Cc1ccc(OS(=O)(=O)O)cc1)NC(=O)OC(C)(C)C)C(=O)NCC(=O)N[C@@H](Cc1c[nH]c2ccccc12)C(=O)N[C@@H](CCCC)C(=O)N[C@@H](CC(=O)O)C(=O)N[C@@H](Cc1ccccc1)NC=O` the same measures were 500 nM, 30 nM and 30 nM.
With `CCCC[C@@H](NC(=O)CC(=O)N[C@H](Cc1c[nH]c2ccccc12)C(=O)N[C@@H](CCCC)C(=O)N[C@H](CC(=O)O)C(=O)N[C@@H](Cc1ccccc1)C(N)=O)NC(=O)[C@H](Cc1ccc(OS(=O)(=O)O)cc1)NC(=O)C(CC(=O)O)NC(=O)OC(C)(C)C` (some centres not stated), the IC50 on Cholecystokinin receptor was 500 nM; in assay [1], 2 nM. Also, the EC50 in the assay filed under Rattus norvegicus was 6 nM.
With `CCCC[C@H](NC(=O)[C@H](Cc1ccc(OS(=O)(=O)O)cc1)NC(=O)OC(C)(C)C)C(=O)NCC(=O)N[C@@H](Cc1c[nH]c2ccccc12)C(=O)N[C@@H](CCCC)C(=O)N[C@@H](CC(=O)O)C(=O)N[C@@H](Cc1ccccc1)C(N)=O` (Boc-[sY][Nle]GW[Nle]DF-NH2), the EC50 in the assay filed under Rattus norvegicus was 0.05 nM.
